Results taken from patent publication US20050124607A1, “5-Substituted quinazolinone compounds useful as alpha 1A/B adrenergic receptor antagonists” (priority 2003, published 2005).

Tests used:
alpha1D adrenoceptor = target: T1, alpha1D adrenoceptor (Homo sapiens, UniProt P25100); experiment: [3H]prazosin binding (alpha1-adrenoceptor) assay, alpha 1D; conditions: transfected CHO-K1 cell membranes, read-out: pKi alpha 1D (converted)
T1 construct: expressed in transfected cells; host or cells: CHO-K1
T1 sequence (P25100 1-572): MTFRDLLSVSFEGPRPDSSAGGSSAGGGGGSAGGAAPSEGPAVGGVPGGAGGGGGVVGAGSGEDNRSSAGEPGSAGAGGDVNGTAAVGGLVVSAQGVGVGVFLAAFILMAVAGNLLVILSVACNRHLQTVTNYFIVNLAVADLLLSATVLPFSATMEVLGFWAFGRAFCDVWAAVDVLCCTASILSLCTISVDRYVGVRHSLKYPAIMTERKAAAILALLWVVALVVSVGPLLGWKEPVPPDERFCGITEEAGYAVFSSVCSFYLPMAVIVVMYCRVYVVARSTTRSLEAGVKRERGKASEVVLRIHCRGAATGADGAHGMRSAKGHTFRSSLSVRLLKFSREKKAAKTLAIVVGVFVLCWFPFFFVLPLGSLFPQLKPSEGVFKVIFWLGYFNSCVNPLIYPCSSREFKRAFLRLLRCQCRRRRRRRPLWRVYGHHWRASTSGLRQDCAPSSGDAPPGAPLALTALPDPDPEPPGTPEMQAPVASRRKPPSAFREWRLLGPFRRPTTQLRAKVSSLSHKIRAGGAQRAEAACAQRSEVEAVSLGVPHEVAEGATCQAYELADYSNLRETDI
Description: (§1) Alpha1 A, alpha1B, and alpha1D adrenoceptor transfected CHO-K1 cells, prepared using the methods described by Chang et al., FEBS Lett. 1998, 422:279-283, were grown to confluence in T-162 tissue culture flasks in Ham's F-12 culture medium supplemented with 10% fetal bovine serum, geneticin (150 μg/mL) and streptomycin/penicillin (30 μg/mL/30 μg/mL) at 37° C. in 7% CO2. Cells were harvested by incubating with phosphate-buffered saline (PBS) containing 30 μM EDTA for 5-10 min at 37° C. Cells were pelleted by centrifuging at 500×g for 5 min, and the pelleted cells were homogenized (Polytron homogenizer) in 10 vols (w/v) of 50 mM Tris, 1 mM EDTA, (homogenisation buffer, pH 7.4 at 4° C.). The homogenate was centrifuged at 45,000×g for 20 min. The pellet was resuspended in the homogenizing buffer and rehomogenized. The resulting homogenate was centrifuged at 45,000×g for 20 min. The pellet was resuspended in 50 mM Tris buffer (pH 7.4 at 4° C.), aliquoted, frozen, and stored at −80° C. for further use.
(§2) The membranes were thawed at rt and diluted in assay buffer (50 mM Tris buffer at […]) at 37° C. and homogenized using the Polytron tissue disrupter. The membranes were incubated with the radioligand ([^3H]prazosin, NEN, 0.1-0.5 nM) and test compound at 37° C. for 30 min. The membranes were then filtered over polyethyleneimine-treated GF/B unifilter plates using a Packard Filtermate Harvester and washed with ice-cold 50 mM Tris-HCl, 1 mM EDTA buffer (3×3 sec. washes). Scintillation cocktail was added to the filter plates and bound radioligand determined by liquid scintillation spectrophotometry.
(§3) For each experiment, total binding (in the absence of any test or reference compounds) and non-specific binding (10 μM phentolamine) were determined. For each sample tested, the concentration producing 50% inhibition of binding (IC50) and Hill Slope (nH) was determined using iterative non-linear curve fitting techniques with Kaleidagraph (Synergy Software) or other appropriate software. If the radioligand KD was known, the inhibition dissociation constant (KI) of each ligand was determined according to the method of Cheng and Prusoff (Cheng, Y-C. and Prusoff, W. H., Biochem.Pharmacol., 1973, 22, 3099-3108).

alpha1A adrenoceptor = target: T2, alpha1A adrenoceptor (Homo sapiens, UniProt P35348); experiment: [3H]prazosin binding (alpha1-adrenoceptor) assay, alpha 1A; conditions: transfected CHO-K1 cell membranes, read-out: pKi alpha 1A (converted)
T2 construct: expressed in transfected cells; host or cells: CHO-K1
T2 sequence (P35348 1-466): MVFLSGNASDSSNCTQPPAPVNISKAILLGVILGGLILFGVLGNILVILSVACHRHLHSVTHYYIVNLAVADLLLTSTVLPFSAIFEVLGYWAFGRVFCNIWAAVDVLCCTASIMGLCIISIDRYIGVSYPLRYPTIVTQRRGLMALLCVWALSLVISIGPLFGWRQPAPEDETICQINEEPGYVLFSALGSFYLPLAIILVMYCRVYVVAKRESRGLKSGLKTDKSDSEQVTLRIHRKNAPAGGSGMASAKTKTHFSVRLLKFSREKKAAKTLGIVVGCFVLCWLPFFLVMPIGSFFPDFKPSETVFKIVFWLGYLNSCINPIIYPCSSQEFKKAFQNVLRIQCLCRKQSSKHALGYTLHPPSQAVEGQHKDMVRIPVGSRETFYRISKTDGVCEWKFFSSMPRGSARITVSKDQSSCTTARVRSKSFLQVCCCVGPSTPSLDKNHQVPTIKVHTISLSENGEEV
Description: as §1, §2, §3

alpha1B adrenoceptor = target: T3, alpha1B adrenoceptor (Homo sapiens, UniProt P35368); experiment: [3H]prazosin binding (alpha1-adrenoceptor) assay, alpha 1B; conditions: transfected CHO-K1 cell membranes, read-out: pKi alpha 1B (converted)
T3 construct: expressed in transfected cells; host or cells: CHO-K1
T3 sequence (P35368 1-520): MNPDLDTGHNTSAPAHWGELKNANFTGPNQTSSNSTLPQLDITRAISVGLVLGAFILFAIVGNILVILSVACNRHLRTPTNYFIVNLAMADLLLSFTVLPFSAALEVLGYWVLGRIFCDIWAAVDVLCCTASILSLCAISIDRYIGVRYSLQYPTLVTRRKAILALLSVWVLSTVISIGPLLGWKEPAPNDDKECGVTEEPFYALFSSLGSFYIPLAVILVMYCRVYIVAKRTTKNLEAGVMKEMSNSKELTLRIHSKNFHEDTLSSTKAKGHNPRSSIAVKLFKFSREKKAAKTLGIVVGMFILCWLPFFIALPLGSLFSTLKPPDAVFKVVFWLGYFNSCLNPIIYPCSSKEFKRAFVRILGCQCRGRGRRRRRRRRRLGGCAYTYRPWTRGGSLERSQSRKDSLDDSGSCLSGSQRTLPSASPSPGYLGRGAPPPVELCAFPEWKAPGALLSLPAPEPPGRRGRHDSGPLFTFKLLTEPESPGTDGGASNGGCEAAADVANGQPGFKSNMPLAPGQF
Description: as §1, §2, §3

[1] = tested on: hypogastric nerve stimulation-induced increases in intraurethral pressure and phenylephrine-induced increases in diastolic blood pressure; experiment: In vivo intraurethral and blood pressure assay in anesthetized dog; conditions: anesthetized male mongrel dog, i.v. bolus, increasing doses
Description: The following describes an in vivo assay for measuring the relative effect of test compounds on hypogastric nerve stimulation-induced increases in intraurethral pressure and phenylephrine-induced increases in diastolic blood pressure in anesthetized dog.
Male Mongrel dogs (10 to 20 kg) were-fasted for 12 to 18 hours and anesthetized with phenobarbital sodium (36 mg/kg, i.v.). An endotracheal tube was inserted and thereafter the lungs were mechanically ventilated with room air. The right femoral vein was isolated and cannulated with two polyethylene cannulae, one for the administration of a continuous infusion of phenobarbital sodium (5 to 10 mg/kg/hr) and the other for bolus administration of test substances. The right femoral artery was isolated and cannulated to the abdominal aorta with a fluid filled polyethylene cannula connected to an external pressure transducer for monitoring diastolic aortic pressure (DAP). The bladder was exposed via a ventral midline abdominal incision and emptied of urine through a 22 gauge needle. The bladder was cannulated through a stab incision with a water filled balloon catheter connected to an external pressure transducer for monitoring prostatic intraurethral pressure (IUP). The right hypogastric nerve (HGN) was carefully isolated and attached to a Dastre's electrode for nerve stimulation. […]

Ki (alpha1D adrenoceptor) [nM]	Ki (alpha1A adrenoceptor) [nM]	Ki (alpha1B adrenoceptor) [nM]	SMILES	inhibition of HGN stimulation-induced increases in IUP and PE-induced increases in DAP [1]
87.1	5.25	2.19	COc1cc2[nH]c(N3CCC(CCn4ccnc4)CC3)nc(=O)c2c(C)c1OC [2-[4-(2-Imidazol-1-yl-ethyl)-piperidin-1-yl]-6,7-di-methoxy-5-methyl-1H-quinazolin-4-one]	–
79.4	1.58	1.58	CNCC(=O)N(C)Cc1cccc2c1CCN(c1nc(=O)c3c(C)c(OC)c(OC)cc3[nH]1)C2 [N-[2-(6,7-Dimethoxy-5-methyl-4-oxo-1,4-dihydro-quinazolin-2-yl)-1,2,3,4-tetrahydro-isoquinolin-5-ylmethyl]-N-methyl-2-methylamino-acetamide]	–

The next lines start with the compound.

SMILES	Ki (alpha1D adrenoceptor) [nM]	Ki (alpha1A adrenoceptor) [nM]	Ki (alpha1B adrenoceptor) [nM]	inhibition of HGN stimulation-induced increases in IUP and PE-induced increases in DAP [1]
COc1cc2nc(N3CCN(C(=O)c4ccco4)CC3)nc(N)c2cc1OC [prazosin]	–	–	–	inhibited increases in IUP and DAP in similar fashion
COc1cc2[nH]c(N3CCC4(CC3)CN(c3ccc(F)cc3)C(=O)CO4)nc(=O)c2c(OC)c1OC	257	6.17	13.8	–
COc1cc2[nH]c(N3CCN(c4ncc[nH]4)CC3)nc(=O)c2c(OC)c1OC [2-[4-(1H-Imidazol-2-yl)-piperazin-1-yl]-5,6,7-tri-methoxy-1H-quinazolin-4-one]	457	1.12	2.51	–
